20 molecules from ChEMBL document CHEMBL1133162, “Tyrosine kinase inhibitors. 17. Irreversible inhibitors of the epidermal growth factor receptor: 4-(phenylamino)quinazoline- and 4-(phenylamino)pyrido[3,2-d]pyrimidine-6-acrylamides bearing additional solubilizing functions” (J Med Chem, 2000) can be followed below.

The source made the active and inactive calls. The rule behind the calls is not given here.

Experiment [1] deals with T1, Epidermal growth factor receptor (Homo sapiens, UniProt P00533).
Description: Inhibition of EGF-stimulated autophosphorylation of EGFR enzyme in A431 cells detected by immunoblotting
Experiment [2] deals with T1, Epidermal growth factor receptor. The source holds these as a separate data set.
Description: Inhibition of phosphorylation of a polyglutamic acid/tyrosine random copolymer by EGFR enzyme prepared from human A431 carcinoma cell vesicles by immunoaffinity chromatography
Experiment [3] deals with Receptor tyrosine-protein kinase erbB-2 (Homo sapiens, UniProt P04626).
Description: Inhibition of autophosphorylation of ERBB2 receptor kinase in MDA-MB 453 cells
The test system of experiment [4] is Caco-2. The experiment is described as follows: Absorptive transport in Caco-2 cells in comparison to metoprolol. The experiment is classed as functional, cell-based. The settings on record: Homo sapiens.
Experiment [5] has as its system Caco-2. The experiment is described as follows: permeability in Caco-2 cells; no. The class given is functional, cell-based. The conditions noted are these: Homo sapiens.
The test system of experiment [6] is Caco-2. The experiment is described as follows: Efflux in Caco-2 cells; no. The experiment is classed as functional, cell-based. The settings on record: Homo sapiens.
Experiment [7] relates to Mus musculus. The experiment is described as follows: In vivo activity against xenografts in mice, ratio of treated/control tumor mass at 10 mg/kg peroral dose for 10-24 days. The experiment is classed as functional. The conditions noted are these: route oral.
Experiment [8] concerns Mus musculus. The experiment is described as follows: In vivo activity against xenografts in mice, ratio of treated/control tumor mass at 10 mg/kg intraperitoneal dose.
Experiment [9] deals with A-431. The experiment is described as follows: In vivo activity against A431 xenografts in mice, difference in days for treated(T) and control(C) tumors to reach 750 mg at 10 mg/kg intraperitoneal dose for 13-26 days.
The subject of experiment [10] is A-431. Description: In vivo activity against A431 xenografts in mice, difference in days for treated(T) and control(C) tumors to reach 750 mg at 60 mg/kg peroral dose for 10-24 days. The experiment is classed as functional. The conditions noted are these: route oral.
Experiment [11] deals with A-431. Description: In vivo activity against A431 xenografts in mice after 60 mg/kg peroral dose. The settings on record: route oral. The class given is functional.
For experiment [12], the system named is Caco-2. The experiment is described as follows: Efflux in Caco-2 cells; yes. The experiment is classed as functional, cell-based. The conditions noted are these: Homo sapiens.
Experiment [13] deals with Caco-2. Description: permeability in Caco-2 cells; yes. The experiment is classed as functional, cell-based. The settings on record: Homo sapiens.
Experiment [14] concerns A-431. Description: In vivo activity against A431 xenografts in mice, ratio of treated/control A431 cell tumor mass at 20 mg/kg peroral dose for 10-24 days. The experiment is classed as functional. The settings on record: route oral.
Experiment [15] relates to A-431. Description: In vivo activity against A431 xenografts in mice, difference in days for treated(T) and control(C) tumors to reach 750 mg at 20 mg/kg peroral dose for 10-24 days. The conditions noted are these: route oral. The class given is functional.
Experiment [16] relates to A-431. The experiment is described as follows: In vivo activity against A431 xenografts in mice, ratio of treated/control tumor mass at 20 mg/kg peroral dose for 15-19 days. The settings on record: route oral.
In experiment [17] the test system is Caco-2. The experiment is described as follows: Secretory Transport in Caco-2 cells in comparison to metoprolol. Also noted: unit not given here. The class given is functional, cell-based. The conditions noted are these: Homo sapiens.
In experiment [18] the test system is Caco-2. Description: Absorptive transport in Caco-2 cells in comparison to metoprolol. The experiment is classed as functional, cell-based. The settings on record: Homo sapiens.
Experiment [19] deals with A-431. The experiment is described as follows: In vivo activity against A431 xenografts in mice, ratio of treated/control tumor mass at 18 mg/kg peroral dose for 10-24 days. The conditions noted are these: route oral.
The test system of experiment [20] is A-431. Description: In vivo activity against A431 xenografts in mice, ratio of treated/control tumor mass at 5 mg/kg peroral dose for 10-24 days. The conditions noted are these: route oral. The experiment is classed as functional.

Receptor tyrosine-protein kinase erbB-2, sequence (P04626 whole entry): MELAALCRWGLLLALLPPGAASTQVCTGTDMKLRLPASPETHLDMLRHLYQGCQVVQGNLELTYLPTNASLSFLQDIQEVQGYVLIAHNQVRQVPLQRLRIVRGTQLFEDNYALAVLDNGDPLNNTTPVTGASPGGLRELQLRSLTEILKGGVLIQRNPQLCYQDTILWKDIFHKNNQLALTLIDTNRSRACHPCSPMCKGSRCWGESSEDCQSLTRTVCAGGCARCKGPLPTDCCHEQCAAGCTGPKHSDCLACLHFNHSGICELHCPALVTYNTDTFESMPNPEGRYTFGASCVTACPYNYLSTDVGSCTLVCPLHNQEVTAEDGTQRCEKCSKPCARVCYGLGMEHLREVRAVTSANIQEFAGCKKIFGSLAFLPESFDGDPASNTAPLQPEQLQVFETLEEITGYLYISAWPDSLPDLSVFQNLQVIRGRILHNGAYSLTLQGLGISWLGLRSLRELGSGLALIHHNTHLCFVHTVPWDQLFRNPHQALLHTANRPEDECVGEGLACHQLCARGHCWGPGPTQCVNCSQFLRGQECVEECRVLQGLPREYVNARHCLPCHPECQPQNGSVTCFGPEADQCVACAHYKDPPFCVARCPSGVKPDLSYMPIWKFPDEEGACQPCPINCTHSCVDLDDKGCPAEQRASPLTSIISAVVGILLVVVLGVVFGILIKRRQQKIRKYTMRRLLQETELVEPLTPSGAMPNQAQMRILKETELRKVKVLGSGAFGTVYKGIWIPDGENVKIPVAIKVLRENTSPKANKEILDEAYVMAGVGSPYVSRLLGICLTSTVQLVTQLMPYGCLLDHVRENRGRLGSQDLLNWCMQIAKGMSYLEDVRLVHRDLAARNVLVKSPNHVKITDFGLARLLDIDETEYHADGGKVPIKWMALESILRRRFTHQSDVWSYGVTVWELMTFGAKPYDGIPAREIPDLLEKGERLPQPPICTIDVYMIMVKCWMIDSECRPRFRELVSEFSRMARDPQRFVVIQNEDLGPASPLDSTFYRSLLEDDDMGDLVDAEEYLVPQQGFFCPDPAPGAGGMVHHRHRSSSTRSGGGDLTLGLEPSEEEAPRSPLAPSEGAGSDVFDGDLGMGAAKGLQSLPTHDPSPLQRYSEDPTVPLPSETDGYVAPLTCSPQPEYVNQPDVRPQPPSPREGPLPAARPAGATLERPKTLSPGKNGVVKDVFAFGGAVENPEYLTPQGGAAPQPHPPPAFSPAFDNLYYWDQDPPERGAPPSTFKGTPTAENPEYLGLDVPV
T1 sequence (P00533 whole entry): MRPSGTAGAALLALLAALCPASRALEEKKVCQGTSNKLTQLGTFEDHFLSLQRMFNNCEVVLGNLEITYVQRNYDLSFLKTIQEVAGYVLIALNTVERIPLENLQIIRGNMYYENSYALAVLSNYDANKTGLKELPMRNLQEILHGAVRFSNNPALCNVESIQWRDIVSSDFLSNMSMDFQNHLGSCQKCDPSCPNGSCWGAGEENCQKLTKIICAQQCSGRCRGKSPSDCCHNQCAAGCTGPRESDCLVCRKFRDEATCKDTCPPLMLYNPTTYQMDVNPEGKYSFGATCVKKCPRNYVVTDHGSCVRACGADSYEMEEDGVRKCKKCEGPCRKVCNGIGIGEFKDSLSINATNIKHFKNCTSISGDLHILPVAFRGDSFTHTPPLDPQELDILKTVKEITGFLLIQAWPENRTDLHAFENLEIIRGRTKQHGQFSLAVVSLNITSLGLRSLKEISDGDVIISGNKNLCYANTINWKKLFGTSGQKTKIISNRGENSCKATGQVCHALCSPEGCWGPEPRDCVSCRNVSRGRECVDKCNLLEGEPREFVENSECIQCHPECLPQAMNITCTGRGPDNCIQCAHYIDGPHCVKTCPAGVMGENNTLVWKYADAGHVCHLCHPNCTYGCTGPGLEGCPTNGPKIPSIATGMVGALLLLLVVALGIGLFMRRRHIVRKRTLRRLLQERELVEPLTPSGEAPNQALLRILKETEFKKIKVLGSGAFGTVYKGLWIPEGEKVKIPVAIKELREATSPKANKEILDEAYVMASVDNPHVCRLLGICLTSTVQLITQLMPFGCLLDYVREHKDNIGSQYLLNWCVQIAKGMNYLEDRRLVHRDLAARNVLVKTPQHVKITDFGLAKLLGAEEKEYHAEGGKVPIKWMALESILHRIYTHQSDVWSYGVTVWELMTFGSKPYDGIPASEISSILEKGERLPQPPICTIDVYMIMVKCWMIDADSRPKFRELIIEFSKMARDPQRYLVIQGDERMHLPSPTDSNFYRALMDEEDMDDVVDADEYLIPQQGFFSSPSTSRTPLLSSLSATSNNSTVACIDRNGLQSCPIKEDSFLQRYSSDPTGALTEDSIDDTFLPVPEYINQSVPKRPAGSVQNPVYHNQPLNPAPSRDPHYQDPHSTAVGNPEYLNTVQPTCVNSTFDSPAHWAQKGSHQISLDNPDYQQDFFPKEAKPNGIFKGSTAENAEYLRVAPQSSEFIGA

As for `C=CC(=O)Nc1cc2c(Nc3cccc(Br)c3)ncnc2cc1OCCCN1CCN(C)CC1`, the concentration for half-maximal inhibition (IC50) in experiment [1] is 0.003 µM; in [2], 0.0017 µM.

Consider `C=CC(=O)Nc1ccc2ncnc(Nc3ccc(CN(C)C)c(Br)c3)c2c1`, for which the 50% inhibitory concentration (IC50) in experiment [1] was 0.416 µM; in experiment [2], 0.045 µM.

For the molecule `C=CC(=O)Nc1cc2c(Nc3cccc(Br)c3)ncnc2cc1SCCCN(CC)CC`, the half-inhibitory concentration (IC50) came to 0.196 µM in experiment [1] and 0.00078 µM in experiment [2].

With `C=CC(=O)Nc1cc2c(Nc3cccc(C)c3)ncnc2cc1OCCCN1CCN(C)CC1`, the IC50 in experiment [1] came to 0.018 µM; in [2], 0.002 µM.

Take `C=CC(=O)N(C)c1nc2c(Nc3ccc(F)c(Cl)c3)ncnc2cc1OCCCN1CCOCC1`: the IC50 in [3] is > 0.2 µM; in experiment [1] it was 0.088 µM; in experiment [2] it was 0.02 µM.

As to `COCCc1ccc(OCC(O)CNC(C)C)cc1` (stereo unspecified), the Permeability was 21.4 ·10e6 in experiment [4], “Impermeable” in [5] and “Impermeable” in experiment [6].

With `C=CC(=O)Nc1cc2c(Nc3ccc(F)c(Br)c3)ncnc2cc1OCCCN1CCOCC1`, the results for the half-maximal inhibitory concentration (IC50) in experiment [3], in experiment [1] and in [2] were 0.0082 µM, 0.0047 µM and 0.0018 µM, respectively.

As to `C=CC(=O)Nc1cc2c(Nc3ccc(F)c(Cl)c3)ncnc2cc1OCCOCCCCO`, the IC50 in experiment [2] amounted to 0.0017 µM.

On to `C=CC(=O)Nc1nc2c(Nc3ccc(F)c(Cl)c3)ncnc2cc1OCCOC`, for which the half-inhibitory concentration (IC50) in experiment [1] is 0.377 µM; in [2] it was 0.00097 µM.

`C=CC(=O)Nc1cc2c(Nc3cccc(Br)c3)ncnc2cc1OCCCN1CCOCC1`: the T/C in experiment [7] is given as 0%; in experiment [8], 18%. The molecule further yielded an IC50 in experiment [3] of 0.0064 µM. Besides, the T-C in [9] stood at 21.5 days; in [10], 29.8 days. In addition, the Weight change in experiment [11] was -1.6 g.

`C=CC(=O)Nc1cc2c(Nc3cccc(Br)c3)ncnc2cc1OCCCCN(C)C`: the IC50 worked out at 0.0079 µM in [1] and 0.0039 µM in [2].

On to `CC[C@]1(O)C[C@@H]2CN(CCc3c([nH]c4ccccc34)[C@@](C(=O)OC)(c3cc4c(cc3OC)N(C)[C@H]3[C@@](O)(C(=O)OC)[C@H](OC(C)=O)[C@]5(CC)C=CCN6CC[C@]43[C@@H]65)C2)C1`, for which, in [4], the Permeability is 1.54 ·10e6. Moreover, the Permeability entry in experiment [12] and in experiment [13] was “Active” throughout.

Consider `C=CC(=O)Nc1nc2c(Nc3ccc(F)c(Cl)c3)ncnc2cc1OCCCN1CCN(C)CC1`, for which the IC50 in experiment [3] was 0.182 µM; in experiment [1] it was 0.264 µM; in experiment [2] it was 0.0066 µM.

For the molecule `C=CC(=O)Nc1nc2c(Nc3ccc(F)c(Cl)c3)ncnc2cc1CCCCN1CCOCC1`, the IC50 in experiment [3] is > 5 µM; in experiment [1] it was 5.1 µM; in experiment [2], 0.0027 µM.

Take `C=CC(=O)Nc1nc2c(Nc3ccc(F)c(Cl)c3)ncnc2cc1OCCCN1CCOCC1`: the Permeability is 59.6 ·10e6 in [4] and 81.2 in experiment [17]. Besides, the T/C in experiment [14] is listed as 69%. In experiment [15], the T-C was found to be 9.3 days. In addition, the Weight change in experiment [16] was -0.5 g. For the same molecule, the IC50 in experiment [3] amounted to 0.189 µM; in experiment [1] it was 0.434 µM; in experiment [2], 0.0015 µM. For the same molecule, the Permeability limited entry in experiment [5] is given as “Impermeable”. Also, the Efflux entry in [6] is recorded as “Impermeable”.

Regarding `C=CC(=O)Nc1nc2c(Nc3ccc(F)c(Cl)c3)ncnc2cc1/C=C/CCN1CCOCC1`, the values for the IC50 in experiment [3], in experiment [1] and in [2] were 0.012 µM, 0.119 µM and 0.00016 µM, respectively.

For `C=CC(=O)Nc1nc2c(Nc3ccc(F)c(Cl)c3)ncnc2cc1OC`, the values for the concentration for half-maximal inhibition (IC50) in experiment [3], in experiment [1] and in experiment [2] were 0.125 µM, 0.291 µM and 0.00095 µM, respectively.

`C=CC(=O)Nc1cc2c(Nc3ccc(F)c(Cl)c3)ncnc2cc1OCCCN1CCOCC1` [CANERTINIB]: the Permeability in [18] is 49.3 ·10e6. The values for the Last therapy day in experiment [19] and in [20] were 0% and 4%, respectively. Also, the Cell permeation entry in experiment [5] was “Impermeable”. Also, the Efflux result in experiment [6] is “Impermeable”.

`C=CC(=O)Nc1ccc2ncnc(Nc3cccc(C)c3)c2c1` showed an IC50 in [3] of 0.022 µM.

On to `C=CC(=O)Nc1ccc2ncnc(Nc3ccc(OCCN(C)C)c(Br)c3)c2c1`, for which the half-inhibitory concentration (IC50) in experiment [1] was found to be 7.69 µM; in experiment [2], 0.027 µM.
